Key:
oval-leafed pondweed [1] = assay: Test Example 1: herbicidal activity, application before weed generation under submerged conditions (Table 16, symbol C); format: in vivo, oval-leafed pondweed (Monochoria vaginalis); details: 320 g/ha applied herbicide
Procedure, shortened: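 Alluvial soil was flooded to 4 cm depth, weed seeds were sown mixed and 2.5-leaf rice seedlings were transplanted. On sowing day, the compound's emulsion, diluted in water to a set dose, was applied to the water surface. Plants grew at 25–30 °C and were scored 0–5 after three weeks.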

Japanese bulrush = assay: Test Example 2: herbicidal activity, application during weed generation under submerged conditions (Table 17, symbol B); format: in vivo, Japanese bulrush (Schoenoplectus juncoides); details: AAH 320 g/ha; application during weed generation, submerged conditions
Procedure, shortened: (§1)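 Alluvial soil in Wagner pots was flooded to 4 cm depth and sown with the three weeds together; pots were kept in a greenhouse at 25° C. to 30° C. At the one to two leaf stage, an emulsion formulation diluted in water to a set rate went onto the water surface; scored three weeks later.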

oval-leafed pondweed [2] = assay: Test Example 2: herbicidal activity, application during weed generation under submerged conditions (Table 17, symbol C); format: in vivo, oval-leafed pondweed (Monochoria vaginalis); details: AAH 320 g/ha; application during weed generation, submerged conditions
Procedure, shortened: as §1

barnyard grass [3] = assay: Test Example 3: herbicidal effect by foliage application, Wagner pot (Table 18, symbol H); format: in vivo, barnyard grass (Echinochloa crus-galli); details: 320 g/ha
Procedure, shortened: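 Plants were sown in alluvial soil held under 0.1–0.5 cm standing water and grown 14 days in a greenhouse at 25–30 °C. An emulsifiable formulation, water-diluted to the set dose, was then sprayed onto the foliage, and effects were scored three weeks later using previously defined criteria.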

green foxtail = assay: Test Example 4: herbicidal effect by soil treatment (Table 19, symbol G); format: in vivo, green foxtail (Setaria viridis); details: amount of applied herbicide 320 g/ha
Procedure, shortened: (§2)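 Seeds were sown in sterilized diluvial soil and covered with about 1.5 cm of soil. An emulsion formulation diluted with water to a predetermined herbicide amount was sprayed evenly onto the soil surface. Plants grew in a greenhouse at 25° C. to 30° C., and the effect was scored three weeks after application using criteria from an earlier test.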

barnyard grass [4] = assay: Test Example 4: herbicidal effect by soil treatment (Table 19, symbol H); format: in vivo, barnyard grass (Echinochloa crus-galli); details: amount of applied herbicide 320 g/ha
Procedure, shortened: as §2

blackgrass = assay: Test Example 4: herbicidal effect by soil treatment (Table 19, symbol J); format: in vivo, blackgrass (Alopecurus myosuroides); details: amount of applied herbicide 320 g/ha
Procedure, shortened: as §2

velvetleaf = assay: Test Example 4: herbicidal effect by soil treatment (Table 19, symbol M); format: in vivo, velvetleaf (Abutilon theophrasti); details: amount of applied herbicide 320 g/ha
Procedure, shortened: as §2

redroot pigweed [5] = assay: Test Example 4: herbicidal effect by soil treatment (Table 19, symbol N); format: in vivo, redroot pigweed (Amaranthus retroflexus); details: amount of applied herbicide 320 g/ha
Procedure, shortened: as §2

persian speedwell [6] = assay: Test Example 4: herbicidal effect by soil treatment (Table 19, symbol R); format: in vivo, Persian speedwell (Veronica persica); details: amount of applied herbicide 320 g/ha
Procedure, shortened: as §2

southern crabgrass = assay: Test Example 5: herbicidal effect by foliage application, plastic box (Table 20, symbol F); format: in vivo, southern crabgrass (Digitaria ciliaris); details: foliage application, AAH 320 g/ha, three weeks after application
Procedure, shortened: (§3)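 Plants sown in sterilized diluvial soil and grown 14 days in a greenhouse at 25° C to 30° C, then sprayed on the foliage with the compound's emulsion diluted in water to a predetermined herbicide amount. Injury to weeds and crops scored three weeks after application on a visual rating scale.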

windgrass = assay: Test Example 5: herbicidal effect by foliage application, plastic box (Table 20, symbol L); format: in vivo, windgrass (Apera spica-venti); details: foliage application, AAH 320 g/ha, three weeks after application
Procedure, shortened: as §3

redroot pigweed [7] = assay: Test Example 5: herbicidal effect by foliage application, plastic box (Table 20, symbol N); format: in vivo, redroot pigweed (Amaranthus retroflexus); details: foliage application, AAH 320 g/ha, three weeks after application
Procedure, shortened: as §3

lambsquarters = assay: Test Example 5: herbicidal effect by foliage application, plastic box (Table 20, symbol O); format: in vivo, lambsquarters (Chenopodium album); details: foliage application, AAH 320 g/ha, three weeks after application
Procedure, shortened: as §3

chickweed = assay: Test Example 5: herbicidal effect by foliage application, plastic box (Table 20, symbol P); format: in vivo, common chickweed (Stellaria media); details: foliage application, AAH 320 g/ha, three weeks after application
Procedure, shortened: as §3

persian speedwell [8] = assay: Test Example 5: herbicidal effect by foliage application, plastic box (Table 20, symbol R); format: in vivo, Persian speedwell (Veronica persica); details: foliage application, AAH 320 g/ha, three weeks after application
Procedure, shortened: as §3

Compound | Herbicidal effect on C: oval-leafed pondweed (grade 0-5) (oval-leafed pondweed [1]) | herbicidal effect rating, B: Japanese bulrush (Japanese bulrush) | herbicidal effect rating, C: oval-leafed pondweed (oval-leafed pondweed [2]) | herbicidal effect on H (barnyard grass), rating 0-5 (barnyard grass [3]) | herbicidal effect rating, G: green foxtail (green foxtail) | herbicidal effect rating, H: barnyard grass (barnyard grass [4]) | herbicidal effect rating, J: blackgrass (blackgrass) | herbicidal effect rating, M: velvetleaf (velvetleaf) | herbicidal effect rating, N: redroot pigweed (redroot pigweed [5]) | herbicidal effect rating, R: persian speedwell (persian speedwell [6]) | F: southern crabgrass, herbicidal effect (southern crabgrass) | L: windgrass, herbicidal effect (windgrass) | N: redroot pigweed, herbicidal effect (redroot pigweed [7]) | O: lambsquarters, herbicidal effect (lambsquarters) | P: chickweed, herbicidal effect (chickweed) | R: persian speedwell, herbicidal effect (persian speedwell [8])
CCCC(=O)Oc1c(C)nn(C)c(=O)c1-c1c(-c2ccc3c(c2)OCCO3)sc2ccccc12 [1-090] | 5 (Herbicidal rate of 90% or more (almost completely withered)) | 3 (Herbicidal rate of 40% or more and less than 70%) | 4 (Herbicidal rate of 70% or more and less than 90%) | 5 (Herbicidal rate of 90% or more (almost completely withered)) | 3 (Herbicidal rate of 40% or more and less than 70%) | 1 (Herbicidal rate of 5% or more and less than 20%) | 0 (Herbicidal rate of 5% or less (almost no effect)) | 0 (Herbicidal rate of 5% or less (almost no effect)) | 2 (Herbicidal rate of 20% or more and less than 40%) | 5 (Herbicidal rate of 90% or more (almost completely withered)) | 3 (Herbicidal rate of 40% or more and less than 70%) | 0 (Herbicidal rate of 5% or less (almost no effect)) | 0 (Herbicidal rate of 5% or less (almost no effect)) | 2 (Herbicidal rate of 20% or more and less than 40%) | 4 (Herbicidal rate of 70% or more and less than 90%) | 5 (Herbicidal rate of 90% or more (almost completely withered))
COC(=O)Oc1c(C)nn(C)c(=O)c1-c1c(-c2ccc3c(c2)OCCO3)sc2ccccc12 [1-091] | 4 (Herbicidal rate of 70% or more and less than 90%) | 4 (Herbicidal rate of 70% or more and less than 90%) | 4 (Herbicidal rate of 70% or more and less than 90%) | 5 (Herbicidal rate of 90% or more (almost completely withered)) | 5 (Herbicidal rate of 90% or more (almost completely withered)) | 5 (Herbicidal rate of 90% or more (almost completely withered)) | 0 (Herbicidal rate of 5% or less (almost no effect)) | 5 (Herbicidal rate of 90% or more (almost completely withered)) | 3 (Herbicidal rate of 40% or more and less than 70%) | 5 (Herbicidal rate of 90% or more (almost completely withered)) | 5 (Herbicidal rate of 90% or more (almost completely withered)) | 1 (Herbicidal rate of 5% or more and less than 20%) | 5 (Herbicidal rate of 90% or more (almost completely withered)) | 4 (Herbicidal rate of 70% or more and less than 90%) | 5 (Herbicidal rate of 90% or more (almost completely withered)) | 5 (Herbicidal rate of 90% or more (almost completely withered))
Cc1nn(C)c(=O)c(-c2c(-c3ccc4c(c3)OCCO4)sc3ccccc23)c1OC(=O)SC(C)(C)C [1-092] | 2 (Herbicidal rate of 20% or more and less than 40%) | 1 (Herbicidal rate of 5% or more and less than 20%) | 0 (Herbicidal rate of 5% or less (almost no effect)) | 4 (Herbicidal rate of 70% or more and less than 90%) | 0 (Herbicidal rate of 5% or less (almost no effect)) | 0 (Herbicidal rate of 5% or less (almost no effect)) | 0 (Herbicidal rate of 5% or less (almost no effect)) | 0 (Herbicidal rate of 5% or less (almost no effect)) | 0 (Herbicidal rate of 5% or less (almost no effect)) | 4 (Herbicidal rate of 70% or more and less than 90%) | 3 (Herbicidal rate of 40% or more and less than 70%) | 0 (Herbicidal rate of 5% or less (almost no effect)) | 0 (Herbicidal rate of 5% or less (almost no effect)) | 3 (Herbicidal rate of 40% or more and less than 70%) | 5 (Herbicidal rate of 90% or more (almost completely withered)) | 5 (Herbicidal rate of 90% or more (almost completely withered))
Cc1nn(C)c(=O)c(-c2c(-c3ccc4c(c3)CCO4)sc3ccccc23)c1O [1-101] | 5 (Herbicidal rate of 90% or more (almost completely withered)) | 5 (Herbicidal rate of 90% or more (almost completely withered)) | 5 (Herbicidal rate of 90% or more (almost completely withered)) | 5 (Herbicidal rate of 90% or more (almost completely withered)) | 5 (Herbicidal rate of 90% or more (almost completely withered)) | 5 (Herbicidal rate of 90% or more (almost completely withered)) | 0 (Herbicidal rate of 5% or less (almost no effect)) | 0 (Herbicidal rate of 5% or less (almost no effect)) | 4 (Herbicidal rate of 70% or more and less than 90%) | 5 (Herbicidal rate of 90% or more (almost completely withered)) | 5 (Herbicidal rate of 90% or more (almost completely withered)) | 5 (Herbicidal rate of 90% or more (almost completely withered)) | 4 (Herbicidal rate of 70% or more and less than 90%) | 4 (Herbicidal rate of 70% or more and less than 90%) | 5 (Herbicidal rate of 90% or more (almost completely withered)) | 5 (Herbicidal rate of 90% or more (almost completely withered))
CCCC(=O)Oc1c(C)nn(C)c(=O)c1-c1c(-c2ccc3c(c2)CCO3)sc2ccccc12 [1-102] | 4 (Herbicidal rate of 70% or more and less than 90%) | 5 (Herbicidal rate of 90% or more (almost completely withered)) | 5 (Herbicidal rate of 90% or more (almost completely withered)) | 4 (Herbicidal rate of 70% or more and less than 90%) | 5 (Herbicidal rate of 90% or more (almost completely withered)) | 3 (Herbicidal rate of 40% or more and less than 70%) | 0 (Herbicidal rate of 5% or less (almost no effect)) | 1 (Herbicidal rate of 5% or more and less than 20%) | 4 (Herbicidal rate of 70% or more and less than 90%) | 5 (Herbicidal rate of 90% or more (almost completely withered)) | 4 (Herbicidal rate of 70% or more and less than 90%) | 0 (Herbicidal rate of 5% or less (almost no effect)) | 5 (Herbicidal rate of 90% or more (almost completely withered)) | 4 (Herbicidal rate of 70% or more and less than 90%) | 5 (Herbicidal rate of 90% or more (almost completely withered)) | 5 (Herbicidal rate of 90% or more (almost completely withered))
